According to ChEMBL document CHEMBL1156762, “Deciphering the mechanism of carbonic anhydrase inhibition with coumarins and thiocoumarins” (J Med Chem, 2010):

What was measured:
Carbonic anhydrase 9 = Carbonic anhydrase 9 (Homo sapiens, UniProt Q16790)
Carbonic anhydrase 13 = Carbonic anhydrase 13 (Mus musculus, UniProt Q9D6N1)
Carbonic anhydrase 3 = Carbonic anhydrase 3 (Homo sapiens, UniProt P07451)
Carbonic anhydrase 6 = Carbonic anhydrase 6 (Homo sapiens, UniProt P23280)
[1] = molecular target: Carbonic anhydrase 5B, mitochondrial (Homo sapiens, UniProt Q9Y2D0)
Carbonic anhydrase 7 = Carbonic anhydrase 7 (Homo sapiens, UniProt P43166)
Carbonic anhydrase 14 = Carbonic anhydrase 14 (Homo sapiens, UniProt Q9ULX7)
Carbonic anhydrase 15 = molecular target: T1, Carbonic anhydrase 15 (Mus musculus, UniProt Q99N23)
T1 sequence (Q99N23 whole entry): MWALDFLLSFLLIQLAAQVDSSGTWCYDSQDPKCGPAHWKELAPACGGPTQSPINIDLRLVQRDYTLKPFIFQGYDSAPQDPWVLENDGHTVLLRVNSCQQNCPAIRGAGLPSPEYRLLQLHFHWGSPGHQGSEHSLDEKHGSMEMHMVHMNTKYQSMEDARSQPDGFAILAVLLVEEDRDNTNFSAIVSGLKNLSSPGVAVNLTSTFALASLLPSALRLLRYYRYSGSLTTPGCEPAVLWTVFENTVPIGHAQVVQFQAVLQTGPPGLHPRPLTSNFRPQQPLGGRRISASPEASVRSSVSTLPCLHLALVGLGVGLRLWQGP

Carbonic anhydrase 4 = Carbonic anhydrase 4 (Homo sapiens, UniProt P22748)
[2] = molecular target: Carbonic anhydrase 5A, mitochondrial (Homo sapiens, UniProt P35218)
Carbonic anhydrase 12 = Carbonic anhydrase 12 (Homo sapiens, UniProt O43570)
Carbonic anhydrase 2 [3] = molecular target: T2, Carbonic anhydrase 2 (Homo sapiens, UniProt P00918)
Carbonic anhydrase 2 [4] = molecular target: T2, Carbonic anhydrase 2; remark: listed apart in the source

Chain of Carbonic anhydrase 5A, mitochondrial (P35218 whole entry): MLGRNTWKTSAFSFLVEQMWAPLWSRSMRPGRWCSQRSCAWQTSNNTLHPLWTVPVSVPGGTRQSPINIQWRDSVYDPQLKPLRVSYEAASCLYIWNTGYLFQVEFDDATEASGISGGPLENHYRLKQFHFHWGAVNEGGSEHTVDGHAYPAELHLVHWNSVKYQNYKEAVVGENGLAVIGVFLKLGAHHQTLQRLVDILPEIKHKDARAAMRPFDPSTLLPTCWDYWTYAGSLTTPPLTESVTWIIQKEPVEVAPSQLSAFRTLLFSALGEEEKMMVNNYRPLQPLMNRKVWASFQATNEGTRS
Chain of Carbonic anhydrase 6 (P23280 whole entry): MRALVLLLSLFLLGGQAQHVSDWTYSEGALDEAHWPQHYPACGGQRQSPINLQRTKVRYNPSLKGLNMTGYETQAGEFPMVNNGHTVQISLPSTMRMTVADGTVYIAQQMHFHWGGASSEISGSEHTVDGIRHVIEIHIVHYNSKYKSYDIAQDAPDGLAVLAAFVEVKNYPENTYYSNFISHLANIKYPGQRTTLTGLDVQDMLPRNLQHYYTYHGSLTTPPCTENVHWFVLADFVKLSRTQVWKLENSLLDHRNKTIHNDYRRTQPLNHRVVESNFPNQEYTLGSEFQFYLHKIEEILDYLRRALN
Chain of Carbonic anhydrase 13 (Q9D6N1 whole entry): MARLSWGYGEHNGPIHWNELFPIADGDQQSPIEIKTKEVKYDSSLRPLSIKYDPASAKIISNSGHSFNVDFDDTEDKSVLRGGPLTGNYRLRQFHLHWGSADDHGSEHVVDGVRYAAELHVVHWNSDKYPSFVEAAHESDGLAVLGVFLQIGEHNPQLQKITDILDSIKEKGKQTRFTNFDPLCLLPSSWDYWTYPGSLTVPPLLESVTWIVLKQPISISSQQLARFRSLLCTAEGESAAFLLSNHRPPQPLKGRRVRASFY
Chain of Carbonic anhydrase 14 (Q9ULX7 whole entry): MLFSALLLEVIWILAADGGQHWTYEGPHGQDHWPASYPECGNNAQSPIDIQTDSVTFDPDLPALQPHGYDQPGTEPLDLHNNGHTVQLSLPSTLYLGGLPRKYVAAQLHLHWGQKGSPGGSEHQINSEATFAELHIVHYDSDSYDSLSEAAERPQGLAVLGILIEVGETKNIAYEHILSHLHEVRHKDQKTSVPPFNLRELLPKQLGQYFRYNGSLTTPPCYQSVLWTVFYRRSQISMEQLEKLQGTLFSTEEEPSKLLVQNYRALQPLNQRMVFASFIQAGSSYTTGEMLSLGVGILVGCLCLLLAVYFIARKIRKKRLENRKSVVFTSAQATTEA
Chain of Carbonic anhydrase 7 (P43166 whole entry): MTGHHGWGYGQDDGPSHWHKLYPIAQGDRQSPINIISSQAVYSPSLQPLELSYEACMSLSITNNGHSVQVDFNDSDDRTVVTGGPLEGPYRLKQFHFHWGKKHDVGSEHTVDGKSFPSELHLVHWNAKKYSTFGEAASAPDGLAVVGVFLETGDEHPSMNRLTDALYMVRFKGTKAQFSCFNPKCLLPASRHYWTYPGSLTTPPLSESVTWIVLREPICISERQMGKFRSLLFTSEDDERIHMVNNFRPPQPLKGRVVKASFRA
Chain of Carbonic anhydrase 4 (P22748 whole entry): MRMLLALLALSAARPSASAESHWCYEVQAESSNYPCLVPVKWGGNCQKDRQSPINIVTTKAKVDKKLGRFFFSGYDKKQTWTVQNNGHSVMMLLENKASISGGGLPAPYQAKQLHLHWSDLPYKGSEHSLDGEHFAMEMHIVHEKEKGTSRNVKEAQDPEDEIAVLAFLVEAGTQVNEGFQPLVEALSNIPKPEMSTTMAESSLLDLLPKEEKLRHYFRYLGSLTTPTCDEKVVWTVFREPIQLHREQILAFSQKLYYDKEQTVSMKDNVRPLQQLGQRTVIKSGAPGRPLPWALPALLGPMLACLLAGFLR
Chain of Carbonic anhydrase 12 (O43570 whole entry): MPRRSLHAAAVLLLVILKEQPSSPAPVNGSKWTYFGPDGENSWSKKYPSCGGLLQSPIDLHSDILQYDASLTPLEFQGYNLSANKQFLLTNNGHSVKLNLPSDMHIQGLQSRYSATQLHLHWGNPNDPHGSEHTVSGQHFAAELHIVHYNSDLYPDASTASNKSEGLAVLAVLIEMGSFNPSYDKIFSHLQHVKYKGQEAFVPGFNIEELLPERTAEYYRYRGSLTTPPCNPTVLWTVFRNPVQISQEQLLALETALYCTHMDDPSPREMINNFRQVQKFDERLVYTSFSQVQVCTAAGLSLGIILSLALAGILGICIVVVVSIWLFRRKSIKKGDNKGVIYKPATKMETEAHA
Chain of Carbonic anhydrase 3 (P07451 whole entry): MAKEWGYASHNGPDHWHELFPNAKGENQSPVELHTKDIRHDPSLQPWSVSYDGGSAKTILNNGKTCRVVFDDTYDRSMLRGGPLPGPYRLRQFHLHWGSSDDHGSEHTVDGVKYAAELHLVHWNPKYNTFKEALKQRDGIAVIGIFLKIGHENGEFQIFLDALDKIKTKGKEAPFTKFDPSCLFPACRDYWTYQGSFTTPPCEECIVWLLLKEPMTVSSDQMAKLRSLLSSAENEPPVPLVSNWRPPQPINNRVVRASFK
Chain of Carbonic anhydrase 5B, mitochondrial (Q9Y2D0 whole entry): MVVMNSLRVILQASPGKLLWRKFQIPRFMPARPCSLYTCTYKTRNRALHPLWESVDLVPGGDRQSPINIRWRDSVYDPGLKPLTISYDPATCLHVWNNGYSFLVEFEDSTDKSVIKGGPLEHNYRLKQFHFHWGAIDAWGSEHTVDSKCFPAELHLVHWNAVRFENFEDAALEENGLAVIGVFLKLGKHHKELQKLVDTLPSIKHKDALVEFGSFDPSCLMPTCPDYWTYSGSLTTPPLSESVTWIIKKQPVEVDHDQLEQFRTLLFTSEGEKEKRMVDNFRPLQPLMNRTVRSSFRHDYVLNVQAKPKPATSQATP

Row | SMILES | Ki (Carbonic anhydrase 9) [µM] | Ki (Carbonic anhydrase 13) [µM] | Ki (Carbonic anhydrase 3) [µM] | Ki (Carbonic anhydrase 6) [µM] | Ki [1] [µM] | Ki (Carbonic anhydrase 7) [µM] | Ki (Carbonic anhydrase 14) [µM] | Ki (Carbonic anhydrase 15) [µM] | Ki (Carbonic anhydrase 4) [µM] | Ki [2] [µM] | Ki (Carbonic anhydrase 12) [µM] | Ki (Carbonic anhydrase 2 [3]) [µM] | Ki (Carbonic anhydrase 2 [4]) [µM]
1 | CCOc1ccc2ccc(=O)oc2c1 | 1.6 | 27.4 | 29 | 5.8 | 60.9 | 7.2 | 4.7 | 76.3 | 22.7 | 7.3 | 4.7 |  | 
2 | NCc1ccc2oc(=O)ccc2c1 | 8.4 | 0.04 |  |  |  |  |  |  |  |  |  |  | 
3 | COc1ccc2oc(=O)c(C(=O)O)cc2c1 | 5.7 | 8.1 | 9 | 10.5 | 7.6 | 4.9 | 39.6 | 7.2 | 4.9 | 8.7 | 6.8 | 13.4 | 0.059
4 | O=C(O)c1cc2ccccc2sc1=O |  | 5.6 | > 500 | 8.8 |  |  |  | 4.8 |  |  |  |  | 
5 | COc1cc2oc(=O)ccc2cc1[C@@H](O)CC(C)C |  | 9.9 |  |  |  |  |  | 93.1 |  |  |  |  | 
6 | Cc1ccc2oc(=O)c(C(=O)O)cc2c1 | 0.048 |  | > 500 | 31.7 |  | 29.6 |  |  |  |  |  |  | 
7 | O=c1ccc2cc(C[N+]34CN5CN(CN(C5)C3)C4)ccc2o1 | 3 | 3.8 |  |  |  |  |  |  |  |  |  |  | 
8 | CCCCOc1ccc2ccc(=O)oc2c1 [7-BUTOXYCOUMARIN] | 4.9 | 6.1 |  |  |  |  |  | 65.2 |  | 9 |  |  | 

Continued, values first:

Row | Ki (Carbonic anhydrase 9) [µM] | Ki (Carbonic anhydrase 13) [µM] | Ki (Carbonic anhydrase 3) [µM] | Ki (Carbonic anhydrase 6) [µM] | Ki [1] [µM] | Ki (Carbonic anhydrase 7) [µM] | Ki (Carbonic anhydrase 14) [µM] | Ki (Carbonic anhydrase 15) [µM] | Ki (Carbonic anhydrase 4) [µM] | Ki [2] [µM] | Ki (Carbonic anhydrase 12) [µM] | Ki (Carbonic anhydrase 2 [3]) [µM] | Ki (Carbonic anhydrase 2 [4]) [µM] | SMILES
9 | 4.1 | 0.045 |  |  |  |  |  |  |  |  |  |  |  | COc1ccc2c(C(=O)O)cc(=O)oc2c1
10 | 5.8 | 7.3 |  | 8.5 |  |  |  | 44.5 |  |  |  |  |  | O=c1ccc2ccc(CCc3ccccc3)cc2o1
11 | 8.7 | 7.4 |  |  |  |  |  | 7.4 | 6.5 |  |  |  |  | COC(=O)c1cc2cc(CO)ccc2oc1=O
12 | 6.2 |  | 60.9 | 1.5 | 2.9 | 0.045 | 4.6 |  | 0.048 | 3 | 25.6 | 24.6 | 213 | CCOC(=O)c1cc2cc(CO)ccc2oc1=O
13 | 5.4 |  |  |  |  |  |  |  |  |  |  |  |  | COc1cccc2cc(C(=O)O)c(=O)oc12
14 |  | 0.045 | 71.7 | 42 | 8 |  |  | 6.6 | 7.2 |  |  |  |  | CCOC(=O)c1cc2ccc(OC)cc2oc1=O
15 |  | 3.1 |  |  |  |  |  | 8.6 |  |  |  |  |  | O=C(O)c1cc2cc(CO)ccc2oc1=O
16 | 8.4 | 0.047 |  |  |  |  |  | 7.4 |  |  |  |  |  | O=c1ccc2cc(CO)ccc2o1
17 |  | 6.6 | > 500 |  |  |  |  |  | 24.6 |  |  |  |  | CCCOc1ccc2ccc(=O)oc2c1 [7-PROPOXYCOUMARIN]
18 | 6.5 | 20.3 | 6.6 | 31.3 | 6.8 | 5.1 | 7.4 | 5.6 | 3.8 | 9 | 2.9 | > 500 |  | O=C(O)c1cc2ccccc2oc1=O [COUMARIN-3-CARBOXYLIC ACID]
19 |  |  | 5.6 |  |  | 3.3 |  |  | 62.2 |  |  |  |  | O=c1ccc2ccccc2o1 [COUMARIN]
20 |  |  | 161 | 61.2 |  | 9.1 |  | > 500 | 7.8 | > 500 |  |  |  | COc1ccc2ccc(=O)oc2c1 [HERNIARIN]
